Square brackets hold non-standard residues; d marks the D form. Peptide text beside a SMILES is read from it. pGlu = O=C1CC[C@@H](C(=O)O)N1; Thz = O=C(O)[C@@H]1CSCN1
Assays:
[1] = tested on: patients affected by atopic dermatitis; test: Erythema score in patients with atopic dermatitis treated topically with pidotimod cream; assay type: in vivo, human; parameters: Effect on erythema score: dose or concentration left out as unconfirmed
Experimental: (§1) An evaluation of the activity of pidotimod was tested on patients affected by atopic dermatitis, in order to assess the efficacy in terms of improvement of the pathology by means of erythema evaluation. The safety of the treatment was also evaluated. The study was performed in 5 patients (4 females and 1 male, aged between 22-35 years, mean=29) with a clinical diagnosis of atopic dermatitis having as inclusion criteria the affection of the anterior flexural crease of the elbow or of the knee.
(§2) The study product was taken with the composition of the Example 1 at a dosage of two applications daily on the affected skin.
(§3) During the trial, the following visits were performed: • baseline—T0 (before the product use) • intermediate visit—T6 (after 6 weeks of treatment) • final visit—T12 (after 12 weeks of treatment)
The efficacy of the product was expressed by mean of a 5 points erythema score, assessing the score at the baseline, at the intermediate visit and the final one.

[2] = tested on: patients affected by atopic dermatitis; test: Safety/tolerability of the treatment in patients with atopic dermatitis; assay type: in vivo, human; details: 5 patients, two applications daily, 12 weeks
Experimental: as §1, §2, §3

**Q.** Which “Student t test p of the erythema score change” value ([1]; T12 (12 weeks) vs. T0 (baseline)) does the source give for `O=C1CC[C@@H](C(=O)N2CSC[C@H]2C(=O)O)N1` [pidotimod, (4R)-3-(5-oxo-L-prolyl)-1,3-thiazolidine-4-carboxylic acid] ([pGlu]-[Thz]-OH) here?
**A.** Its value is less than 0.05.

**Q.** What about the “Effect on erythema score” value ([1]; pidotimod cream, two applications daily, 12 weeks, compared to the baseline) of the same molecule?
**A.** The value was “able to improve the erythema score”.

**Q.** What about the Side effects [2] of the same molecule?
**A.** Its Side effects is “no side effects were reported”.

**Q.** And the “Tolerability of the treatment” value [2]?
**A.** The value was “very well tolerated”.

Source: US20150352081A1, “USE OF PIDOTIMOD TO TREAT ATOPIC DERMATITIS” (POLICHEM S.A., priority 2012, published 2015)
